From PMC4255642 (Biochemistry, 2014)

How the values were obtained:
[1] = system: wild-type and mutant membrane-bound F1Fo ATP synthase; type: biochemical; conditions: wild type and six mutants; 150 μM NBD-Cl 1 h, then 4 mM DTT 1 h
[2] = system: F1Fo-bound membranes; experiment: Control: protecting ligand without added NBD-Cl, ATPase activity; type: biochemical, Escherichia coli; conditions: MgADP up to 10 mM, Pi up to 50 mM
[3] = target: αT349A mutant membrane-bound F1Fo ATP synthase (Escherichia coli, UniProt P0ABB0+P0ABB4, T349A/Y332W); type: biochemical; conditions: sodium azide 30 min preincubation
[4] = target: αT349D mutant membrane-bound F1Fo ATP synthase (Escherichia coli, UniProt P0ABB0+P0ABB4, T349D/Y332W); type: biochemical; conditions: sodium azide 30 min preincubation
[5] = target: αT349Q mutant membrane-bound F1Fo ATP synthase (Escherichia coli, UniProt P0ABB0+P0ABB4, T349Q/Y332W); type: biochemical; conditions: sodium azide 30 min preincubation
[6] = target: αT349R mutant membrane-bound F1Fo ATP synthase (Escherichia coli, UniProt P0ABB0+P0ABB4, T349R/Y332W); type: biochemical; conditions: sodium azide 30 min preincubation
[7] = target: βR182A mutant membrane-bound F1Fo ATP synthase (Escherichia coli, UniProt P0ABB0+P0ABB4, R183A/Y332W); type: biochemical; conditions: sodium azide 30 min preincubation
[8] = target: αT349R/βR182A double mutant membrane-bound F1Fo ATP synthase (Escherichia coli, UniProt P0ABB0+P0ABB4, R183A/T349R/Y332W); type: biochemical; conditions: sodium azide 30 min preincubation

O[C@@H](CS)[C@@H](O)CS (racemic) [DTT, dithiothreitol]
reversal of NBD-Cl inactivation of ATPase activity by DTT [1]: completely restored full activity in all cases

Nc1ncnc2c1ncn2[C@@H]1O[C@H](COP(=O)([O-])OP(=O)([O-])O)[C@@H](O)[C@H]1O.[Mg+2] [MgADP]
inhibitory effect of ligand alone on ATPase activity [2]: Neither MgADP (up to 10 mM) nor Pi (up to 50 mM) had any inhibitory effect alone

O=P(O)(O)O [Pi, inorganic phosphate]
inhibitory effect of ligand alone on ATPase activity [2]: Neither MgADP (up to 10 mM) nor Pi (up to 50 mM) had any inhibitory effect alone

[N-]=[N+]=[N-].[Na+] [azide, sodium azide]
residual ATPase activity with azide [3]: ~53% | residual ATPase activity with azide [4]: ~90% | residual ATPase activity with azide [5]: ~90% | residual ATPase activity with azide [6]: ~40% | residual ATPase activity with azide [7]: ~72% | residual ATPase activity with azide [8]: ~21%
